Numbered stars: 1 amine (or outer) side, 2 acyl side, 3 side chain; on linkers, the order of the positions; unused ones are H or OH. Square brackets hold non-standard residues; d marks the D form. Peptide text beside a SMILES is read from it. * marks the point of attachment. Dolaproine = CO[C@@H]([C@@H]1CCCN1)[C@@H](C)C(=O)O; Dil = CC[C@H](C)[C@H](NC)[C@@H](CC(=O)O)OC; PABC = O=C(OCc1ccc(N[*:1])cc1)[*:2]; X1 = C[C@@H](N*)[C@@H](O)c1ccccc1; Cit = NC(=O)NCCC[C@H](N)C(=O)O; NMeV = CN[C@H](C(=O)O)C(C)C
What was measured:
MDA-MB-231 (HER2−) = assay: Cell toxicity testing of moiety-drug conjugates (CCK-8); assay type: cell-based; conditions: 0-500 nM
Description: (§1) The experiment involved optimizing seeding densities (1.5×10^3 to 1.5×10^4 cells/well) for each cell line (SK-BR-3, MCF-7, MDA-MB-231, MDA-MB-436) in 90 IL, of culture medium per well in a 96-well plate for 2-hour incubation. Next, 10 μL of a series of diluted ADC solutions (0-500 nM) were added to each well. The concentration of each ADC solution and measurements at four time points (24, 48, 72, and 96 hours) were conducted in triplicate. […] Data analysis was performed with GraphPad Prism 8.0.1, employing a four-parameter logistic curve-fit program.

MCF-7 (HER2 1+) [1] = assay: as above; assay type: cell-based
Description: as §1

SK-BR-3 (HER2 3+) [2] = assay: as above; assay type: cell-based; conditions: 0-500 nM
Description: as §1

MDA-MB-436 (HER2−) = assay: as above; assay type: cell-based; conditions: 0-500 nM
Description: as §1

MCF-7 (HER2 1+) [3] = assay: Anti-proliferation assay (CCK-8) of linker-drug combinations, drugs and cleaved products; assay type: cell-based
Description: (§2) Additionally, a series of experiments were conducted, including anti-proliferation assays for linker-drug combinations (i.e. the compounds in the present disclosure), the drugs thereof, and the cleaved products thereof after cleavage by the Cathepsin B enzyme in cells. These assays were performed using HER2-expressing cell lines. MCF-7 and SK-BR-3 cell lines were seeded at a density of 1.5×10^3 to 1×10^4 cells/well in 90 μL of the corresponding culture medium, and cultured at 37° C. in a CO2 incubator (Forma/ThermoFisher (370) or BINDER (CB130)) with a range of dilutions (0-1000 nM) of the compounds in the present disclosure, the drugs thereof, and the cleaved products thereof. Cell density for each sample was recorded by measuring the absorbance of Cell Counting Kit-8 (CCK-8) at 450 nm. Data analysis was performed using GraphPad Prism 8.0.1, and the best-fit four-parameter dose-response curve was selected. Half Maximal Inhibitory Concentration (IC50) values were determined via nonlinear regression; consistency between batches was assessed using One-way ANOVA. The relevant experimental results are detailed in Table 4. […] Such reduced toxicity of the linker-drug combinations (i.e, the compounds in the present disclosure) offers significant advantages in moiety-drug conjugate applications, including better biocompatibility, enhanced therapeutic efficacy, and greater dosing flexibility.

SK-BR-3 (HER2 3+) [4] = assay: as above; assay type: cell-based; conditions: 0-1000 nM
Description: as §2

[5] = Water solubility testing (dissolved with minimal DMSO, precipitated by addition of water); assay type: physicochemical; conditions: precipitated by addition of water to DMSO solution
Description: Briefly, the moiety-compound conjugates was dissolved with minimal DMSO and precipitated by the addition of water. […] However, Entry 5 and Entry 4 are conjugates with two-arm, with no PEG linker or two PEG4 linker, respectively, which were precipitated in 19.5% and 30.8% Water/DMSO. Thus, the results of water solubility of the conjugates are consistent with the inventors' hypothesis.

[6] = Plasma stability, released drug by LC-MS/MS; assay type: in vitro ADME; conditions: for drug release trend: over a 13-day period; for free drug percentage: 13 days
Text: To further advance the research, a set of the compounds in the present disclosure, FL-F21N-L111-P204 and FL-F21N-L106-P204, each containing single-arm and dual-arm respectively, was selected for plasma stability testing in both humans and rats. These were then compared in detail with commercially available Deruxtecan (Dxd) and VC-PAB-MMAE to evaluate their stability and safety in blood.
These calculations were based on standard drugs (e.g., Eribulin, MMAE, Dxd) and they were accurately measured using liquid chromatography-tandem mass spectrometry (LC-MS/MS). […] This trend provides an in-depth understanding of the drug release dynamics.
These experimental results provide crucial data supporting the efficacy and safety of the compounds in the present disclosure.

Compound | IC50 (MDA-MB-231 (HER2−)) [nM] | IC50 (MCF-7 (HER2 1+) [1]; 0-500 nM) [nM] | IC50 (SK-BR-3 (HER2 3+) [2]) [nM] | IC50 (MDA-MB-436 (HER2−)) [nM] | IC50 (MCF-7 (HER2 1+) [3]; 0-1000 nM) [nM] | IC50 (SK-BR-3 (HER2 3+) [4]) [nM] | Precipitation in % Water/DMSO [5] [%] | also measured
Dxd [P209, reference compound] | 135 | 9.53 | 5.51 | 5.12 | 9.53 | 5.51 | – | –
Trastuzumab-Mal-Val-Cit-PAB-(Eribulin)2 [A701-L107-P204-D08] | – | 0.0229 | 0.0172 | – | – | – | – | –
Mal-Val-Cit-PAB-(Eribulin)2 [FL-F21N-L107-P204] | – | – | – | – | 14.2 | 9.24 | 19.5 | –
C=C1C[C@@H]2CC[C@@]34CC5O[C@H]6C(O3)[C@H]3O[C@H](CC[C@@H]3O[C@H]6[C@H]5O4)CC(=O)C[C@@H]3[C@@H](OC)[C@@H](C[C@H](O)CNC(=O)OCCOCCOCCOCCNC(=O)OCc4ccc(NC(=O)[C@H](CCCNC(N)=O)NC(=O)[C@@H](NC(=O)CCCCCN5C(=O)C=CC5=O)C(C)C)cc4)O[C@H]3CC3O[C@@H](CCC1O2)C[C@@H](C)C3=C [FL-F21N-L111-P204, Mal-Val-Cit-PAB-PEG4-Eribulin] | – | – | – | – | – | – | 24.5 | drug release trend ([6]; human plasma): stable drug release trends; drug release trend ([6]; rat plasma): stable drug release trends; IC50 (MCF-7 (HER2 1+) [3]; Homo sapiens, MCF7, 0-1000 nM): 45.5 nM; IC50 (SK-BR-3 (HER2 3+) [4]; Homo sapiens): 30.8 nM
Deruxtecan [L155-P209 (Deruxtecan), reference compound] | – | – | – | – | 512 | 432 | – | free drug percentage ([6]; human plasma): 5.19%; free drug percentage ([6]; rat plasma): 0.70%
C=C1C[C@@H]2CC[C@@]34CC5O[C@H]6[C@@H](O3)[C@H]3O[C@H](CC[C@@H]3O[C@H]6C5O4)CC(=O)C[C@H]3C(C[C@H]4OC(CC[C@@H]1O2)C[C@@H](C)C4=C)O[C@H](C[C@H](O)CNC(=O)OCCOCCOCCOCCOCCOCCOCCOCCOCCOCCOCCOCCNC(=O)OCc1ccc(NC(=O)[C@H](CCCNC(N)=O)NC(=O)[C@@H](NC(=O)CCCCCN2C(=O)C=CC2=O)C(C)C)cc1)[C@@H]3OC (stereo partly drawn) [FL-F21N-L162-P204, Mal-Val-Cit-PEG12-Eribulin] | – | – | – | – | – | – | 31.5 | –
Trastuzumab-Mal-Val-Cit-PAB-PEG4-Eribulin [A701-L111-P204-D08] | > 250 | 0.045 | 0.012 | 33 | – | – | – | –
Trastuzumab-Mal-Val-Cit-PAB-PEG4-Eribulin [A701-L111-P204-D04] | 148 | 3.83 | 0.012 | > 250 | – | – | – | –
C=C1C[C@@H]2CC[C@@]34CC5O[C@H]6[C@@H](O3)[C@H]3O[C@H](CC[C@@H]3O[C@H]6C5O4)CC(=O)C[C@H]3C(C[C@H]4OC(CC[C@@H]1O2)C[C@@H](C)C4=C)O[C@H](C[C@H](O)CNC(=O)OCCOCCOCCOCCOCCOCCOCCOCCOCCOCCOCCOCCOCCOCCOCCOCCOCCOCCOCCOCCOCCOCCOCCOCCNC(=O)OCc1ccc(NC(=O)[C@H](CCCNC(N)=O)NC(=O)[C@@H](NC(=O)CCCCCN2C(=O)C=CC2=O)C(C)C)cc1)[C@@H]3OC (stereo partly drawn) [FL-F21N-L163-P204, Mal-Val-Cit-PEG24-Eribulin] | – | – | – | – | – | – | 38.9 | –
Mal-Val-Cit-PAB-(PEG4-Eribulin)2 [FL-F21N-L106-P204] | – | – | – | – | 26.3 | 13 | 30.8 | free drug percentage ([6]; human plasma): 2.74%; drug release trend ([6]; human plasma): stable drug release trends; free drug percentage ([6]; rat plasma): 3.50%; drug release trend ([6]; rat plasma): stable drug release trends
C=C1C[C@@H]2CC[C@@]34C[C@H]5O[C@H]6[C@@H](O3)[C@H]3O[C@H](CC[C@@H]3O[C@H]6[C@H]5O4)CC(=O)C[C@@H]3[C@@H](OC)[C@@H](C[C@H](O)CN)O[C@H]3C[C@H]3O[C@@H](CC[C@@H]1O2)C[C@@H](C)C3=C [P204, Eribulin, reference compound] | – | – | – | – | – | – | – | IC50 (MDA-MB-231 (HER2−); Homo sapiens): 2.07 nM; IC50 (MCF-7 (HER2 1+) [1]; Homo sapiens, MCF7, 0-500 nM): 0.337 nM; IC50 (SK-BR-3 (HER2 3+) [2]; Homo sapiens): 0.244 nM; IC50 (MDA-MB-436 (HER2−); Homo sapiens): 1.28 nM; IC50 (MCF-7 (HER2 1+) [3]; Homo sapiens, MCF7, 0-1000 nM): 0.337 nM; IC50 (SK-BR-3 (HER2 3+) [4]; Homo sapiens): 0.244 nM
CC[C@H](C)[C@@H]([C@@H](CC(=O)N1CCC[C@H]1[C@H](OC)[C@@H](C)C(=O)N[C@H](C)[C@@H](O)c1ccccc1)OC)N(C)C(=O)[C@@H](NC(=O)[C@H](C(C)C)N(C)C(=O)OCc1ccc(NC(=O)[C@H](CCCNC(N)=O)NC(=O)[C@@H](N)C(C)C)cc1)C(C)C [VC-PAB-MMAE, reference compound] (H-V[Cit][PABC][NMeV]V[Dil][Dolaproine]-X1) | – | – | – | – | – | – | – | free drug percentage ([6]; human plasma): 0.56%; free drug percentage ([6]; rat plasma): 5.03%
Trastuzumab-Mal-Val-Cit-PAB-(PEG4-Eribulin)2 [A701-L106-P204-D08] | 75.2 | 0.0229 | 0.0216 | 14.6 | – | – | – | –

Source: US20250114473A1, “COMPOUND FOR CONJUGATION, CONJUGATE AND PHARMACEUTICAL COMPOSITION COMPRISING THE SAME” (priority 2023, published 2025)
